In patent US7186728B2, “Methylene-4-azasteroids” (Schering AG, priority 2001, dated 2007):

Test system: action of testosterone propionate (TP) on the growth of the seminal vesicle and prostate
Assay: Antiandrogenic activity: inhibition of testosterone propionate (TP) action on accessory genital gland growth in castrated immature male rats
Format: in vivo, rat
Settings: for Effects of testosterone propionate, TP, on the prostate and seminal vesicle (in words): castrated immature male rats, TP + compound; for Inhibition of the action of testosterone propionate (TP) on the growth of the prostate / Inhibition of the action of testosterone propionate (TP) on the growth of the seminal vesicle: sexually immature castrated male rats, TP 0.1 mg/animal/day s.c. + 5α-reductase inhibitor 1 mg/animal/day s.c., 7 days, difference vehicle controls and TP controls = 100%
Procedure: Evaluation of antiandrogenic activity of the compounds of the invention was performed in castrated male rats (see FIGS. 1 to 5/table). Castrated immature male rats were treated for 7 days with testosterone propionate (TP) and the substances of the invention (0.1 mg of TP alone and/or 1 mg of 5α-reductase inhibitor/animal/day, s.s., n=5–10/group). The treatment with TP caused a severe increase in weight of the accessory genital glands (prostate and seminal vesicle). In the animals treated with the vehicle and with 5α-reductase inhibitor alone, the weights of the examined organs remained at low values. The substances of the invention exerted an inhibitory effect in the test systems selected. […] [table]

**Q.** `CN1C(=O)CC[C@@H]2C3CC[C@]4(C)/C(=C/Cl)CCC4C3CC[C@H]21` (stereo partly drawn) [J 1879] was tested. Which “Effects of testosterone propionate, TP, on the prostate and seminal vesicle (in words)” value did it give?
**A.** appreciably reduced

**Q.** And the “Inhibition of the action of testosterone propionate (TP) on the growth of the prostate” value?
**A.** 34%

**Q.** And the “Inhibition of the action of testosterone propionate (TP) on the growth of the seminal vesicle” value?
**A.** 25%

**Q.** What does the source list for `CN1C(=O)CC[C@]2(C)C3CC[C@]4(C)/C(=C/Cl)CCC4C3CC[C@@H]12` (stereo partly drawn) [J 1924]?
**A.** Effects of testosterone propionate, TP, on the prostate and seminal vesicle (in words): appreciably reduced; Inhibition of the action of testosterone propionate (TP) on the growth of the prostate: 39%; Inhibition of the action of testosterone propionate (TP) on the growth of the seminal vesicle: 41%
